From article PMC6271041, “Synthesis and Biological Evaluation of Novel 2-Arylalkylthio-5-iodine-6-substituted-benzyl-pyrimidine-4(3H)-ones as Potent HIV-1 Non-Nucleoside Reverse Transcriptase Inhibitors” (Molecules, 2014)

Legend:
[1] = molecular target: T1, HIV-1 RT (Human immunodeficiency virus type 1 group M subtype B, UniProt P04585); assay: Inhibitory activity against HIV-1 RT (biotin-dUTP incorporation, colorimetric); assay type: biochemical; details: for IC50: mean of three separate experiments, variation less than 15%
T1 construct: The biotin-dUTP was incorporated by reverse transcriptase (Sigma, St. Louis, MO, USA); purchased Sigma
Procedure: Oligo(dT) (TaKaRa Co., Otsu, Japan) was immobilized via its 5'-terminal phosphate to Covalink-NH microtiter plates (NUNC Co., Roskilde, Denmark). The biotin-dUTP was incorporated by reverse transcriptase (Sigma, St. Louis, MO, USA). Briefly, a serial concentration of inhibitor was added to the mixture, which contained 50 mmol/L Tris-HCl (pH 8.3), 3 mmol/L MgCl2, 75 mmol/L KCl, 5 mmol/L DTT, 0.13 mg/mL BSA, 10 μg/mL poly (A), 0.75 μM biotin-11-Dutp, 1.5 μM dTTP and HIV-1 RT. After incubation at 37 °C for 1h, washing buffer, which contained 50 mmol/L Tris-HCl (pH 7.5), 0.15 mol/L NaCl, 0.05 mmol/L MgCl2 and 0.02% Tween20, was used to wash the plate. Then each well of the plate was added […] 1% BSA and incubated at room temperature for another 30 min. The plate was washed with the same buffer for 3 times. Before further incubation at 37 °C for 1 h, 50 μL of alkaline phosphatase streptavidin (SA-ALP) solution (100 ng/mL) was added to each well and washed again as above. Finally, 50 μL of p-nitrophenyl phosphate, disodium (PNPP, 1 mg/mL, pH 9.5) was added and incubated at 37 °C for 30 min. 0.5 mol/L NaOH was added to stop the reaction and a colorimetric streptavidin-alkaline phosphatase reporter system was used to detect and quantify the result.

[2] = test system: HIV-1SF33; assay: Inhibitory activity on HIV-1SF33 infection in TZM-bl cells (p24 ELISA); assay type: cell-based; details: Human immunodeficiency virus 1, 168 h, read-out: EC50 /SF33, concentration inhibiting 50% viral replication, HIV-1SF33 infection in TZM-bl cell line, 7 days
Procedure: TZM-bl cells, HIV-1SF33 were obtained from the NIH AIDS Research and Reference Reagent Program (Germantown, MD, USA). The inhibitory activity of the compounds on infection by a laboratory-adapted HIV-1 strain SF33 was tested in TZM-bl cells. Briefly, TZM-bl cells (4 × 10^4/well) were infected by addition of 200 TCID50 of HIV-1, followed by incubation for 2 h at 37 °C before addition of compounds at serial dilutions.

Structure (SMILES)	IC50 [1] [µM]	melting point [°C]	EC50 [2] [µM]	fold more active compared to nevirapine (HIV-1 RT IC50) [1]
Cc1cc(C)cc(Cc2cc(=O)[nH]c(SCCc3ccc([N+](=O)[O-])cc3)n2)c1 [7n, 2-(4-Nitrophenethylthio)-6-(3,5-dimethylbenzyl)uracil]	1.4	212 to 215	6.12	
Cc1cc(C)cc(Cc2cc(=O)[nH]c(SCCOc3ccc([N+](=O)[O-])cc3)n2)c1 [7q, 2-(2-(4-Nitrophenoxy)ethylthio)-6-(3,5-dimethylbenzyl)uracil]	0.59	210 to 214	5.07	
CC(=O)c1ccc(CSc2nc(Cc3cc(C)cc(C)c3)c(I)c(=O)[nH]2)cc1 [8h, 2-(4-Acetylbenzylthio)-5-iodine-6-(3,5-Dimethylbenzyl)uracil]	0.41	201 to 203	1.06	about 10 fold
Cc1cc(C)cc(Cc2nc(SCCc3ccc([N+](=O)[O-])cc3)[nH]c(=O)c2I)c1 [8n, 2-(4-Nitrophenethylthio)-5-iodine-6-(3,5-dimethylbenzyl)uracil]	0.7	220 to 221	3.84	about 10 fold
Cc1cc(C)cc(Cc2nc(SCCOc3ccc([N+](=O)[O-])cc3)[nH]c(=O)c2I)c1 [8q]	1.31	215 to 218	9.44	
O=c1[nH]c(SCCOc2ccc([N+](=O)[O-])cc2)nc(Cc2cc(F)cc(F)c2)c1I [8r, 2-(2-(4-Nitrophenoxy)ethylthio)-5-Iodine-6-(3,5-difluorobenzyl)uracil]	2.56	224 to 226	4.1	
Cc1ccnc2c1NC(=O)c1cccnc1N2C1CC1 [nevirapine, reference compound]			0.19	
